# Assay results taken from patent US9168286B2, “Methods and compositions for use in treatment of patients with autoantibody positive disease” (Human Genome Sciences, Inc., priority 2005, dated 2015).
# System: subjects with SLE
# Assay: Phase 2 clinical trial of belimumab in SLE with extension and continuation trial: biologic markers (B cells, autoantibodies, Ig isotypes, C3/C4)
# Format: in vivo, human
# Parameters: median percent change in CD20+ B cells (reduction) / median percent change in plasmacytoid B cells (CD20+/CD138+) (reduction) / median percent change in activated B cells (CD20+/CD69+) (reduction) / percent of subjects with significant anti-dsDNA reduction / IgE reduction: concentration or dose not given beside the values
# Conditions: for IgE reduction: subjects with elevated IgE (>114 KU/L) at baseline
# Procedure: Of the patients who completed 52 weeks of treatment in the randomized, double-blind, placebo-controlled Phase 2 trial (see example 1), 96% (351/364) elected to enter the 24-week extension phase of the trial, and 92% (321/351) of those who entered completed it.
# Serum autoantibodies, Ig isotypes and complement (C3, C4) were measured at 1-3 month intervals. In addition, the population with baseline serologic activity (ANA ≧1:80 or anti-dsDNA Ab ≧30IU; 72% of the original cohort herein called seropositive patients or seropositive subjects) was evaluated for SS, physician global assessment (PGA 0-3 units), BILAG, […] Functional Index (SFI) and autoantibody status at 1-3 month intervals.
# [1] = each measurement during weeks 8-52, p<0.01
# [2] = week 52, all treatment groups combined, p<0.002
# [3] = week 76, all treatment groups combined
substance,measurement,setting,value
belimumab: an antibody that neutralizes Neutrokine-alpha protein,subjects with elevated Ig isotype levels at baseline returned to normal Ig isotype levels,"52/128, p=0.0014, control 16% (7/45)",41%
same,decrease of anti-dsDNA levels,"anti-dsDNA+ at baseline, weeks 52-128, placebo week 52=9%",29-44%
same,"serum IgG, IgA, IgE and IgM levels, median percent change from baseline","as early as week 8, p<0.0001 vs placebo",Significant belimumab-induced reductions
same,time at which maximal median reductions of each Ig isotype were reached,belimumab-treated subjects,8-24 weeks
same,percent of subjects with significant anti-dsDNA reduction,"clinical responders, week 52",35%
same,percent of subjects with significant anti-dsDNA reduction,"clinical responders, week 128",56%
same,"CD19+ B cell counts, median percent change from baseline",[1],Significant reductions
same,"activated B cell (CD20+/CD69+) counts, median percent change from baseline",[1],Significant reductions
same,"naïve B cell (CD20+/CD27−) counts, median percent change from baseline",[1],Significant reductions
same,"plasmacytoid B cell (CD20+/CD138+) counts, median percent change from baseline","each measurement during weeks 16-52, p<0.01",Significant reductions
same,increase of C3,"low baseline C3 (n=135), week 52, placebo −1%",6%
same,increase of C3,"low baseline C3, week 76",10%
same,increase of C3,"low baseline C3, week 96",15%
same,increase of C3,"low baseline C3, week 128",18%
same,increase of C4,"low baseline C4 (n=180), week 52, p=0.0126, placebo 14%",33%
same,increase of C4,"low baseline C4, week 76",46%
same,increase of C4,"low baseline C4, week 96",57%
same,increase of C4,"low baseline C4, week 128",67%
same,Anti-Sm reverted from positive at baseline to negative,"n=85, weeks 52-128, placebo week 52=5%",26-36%
same,subjects with hypergammaglobulinemia (>1618 mg/dL) at baseline normalized,"n=125, week 52, placebo week 52=17%",45%
same,subjects with hypergammaglobulinemia (>1618 mg/dL) at baseline normalized,"n=125, week 128",57%
same,RNP reverted from positive at baseline to negative,"n=205, weeks 52-128, placebo week 52=2%",9-27%
same,percent of subjects with significant anti-dsDNA reduction,"non-responders, week 52",19%
same,percent of subjects with significant anti-dsDNA reduction,"non-responders, week 128",32%
same,"C4 complement levels, median percent change from baseline","patients with low C4 at baseline, each measurement during weeks 4-52, p≦0.01",significant increase
same,"anti-dsDNA titer, median percent change from baseline","subjects with anti-dsDNA ≧30 IU/ml at entry, as early as week 4, through week 52, vs placebo",significant reduction
same,IgE reduction,week 52,44%
same,IgE reduction,week 128,57%
same,median percent IgG reduction,"subjects with elevated IgG at baseline, weeks 52-128",14-18%
same,median percent IgG reduction,"subjects with normal IgG at baseline, weeks 52-128",7-8%
same,"cell counts of CD19+, naïve, activated and plasmacytoid B cells, median percent change from baseline","week 24, all treated combined vs placebo, p<0.0001",significant reduction
same,CD19+ B cells and naïve B cells (CD20+/CD27−),week 52,significantly reduced
same,memory cell populations,week 52,preserved
same,median percent change in CD20+ B cells (reduction),[2],54%
same,median percent change in plasmacytoid B cells (CD20+/CD138+) (reduction),[2],62%
same,reduction of anti-dsDNA Ab,"week 52, baseline positive, p<0.002, placebo 9%",30%
same,median percent change in activated B cells (CD20+/CD69+) (reduction),"week 52, p<0.002",70%
same,median reduction of serum IgE,"week 52, placebo 0%",34%
same,median reduction of serum IgA,"week 52, placebo 3%",14%
same,median reduction of serum IgM,"week 52, placebo 5%",29%
same,subjects with significant anti-dsDNA reduction (≧50% reduction or become negative),"week 52, placebo 17%",30%
same,median reduction of serum IgG,"week 52, placebo up 3%",10%
same,increase of plasma cells (CD20−/CD138+) over baseline,"week 52, placebo/standard of care 30.6%, p=0.02",72.5%
same,additional anti-dsDNA+ subjects converted to negative,week 76,3 subjects
same,median reduction of serum IgA,week 76,15%
same,median reduction of serum IgE,week 76,35%
same,median reduction of serum IgG,week 76,12%
same,median reduction of serum IgM,week 76,34%
same,reduction of anti-dsDNA Ab,week 76,28%
same,median percent change in CD20+ B cells (reduction),[3],61%
same,median percent change in activated B cells (CD20+/CD69+) (reduction),[3],84%
same,median percent change in plasmacytoid B cells (CD20+/CD138+) (reduction),[3],60%
same,median reduction of serum IgA,week 104,14%
same,median reduction of serum IgE,week 104,37%
same,median reduction of serum IgG,week 104,10%
same,median reduction of serum IgM,week 104,35%
same,median reduction of serum IgA,week 128,14%
same,median reduction of serum IgE,week 128,41%
same,median reduction of serum IgG,week 128,9%
same,median reduction of serum IgM,week 128,40%
same,subjects with significant anti-dsDNA reduction (≧50% reduction or become negative),week 128,47%
